Source: US8372580B2, “BRCA1 function-based cellular assays” (Morehouse School of Medicine, priority 2008, dated 2013)

Legend:
[1] = system: ERα transcriptional activity in T47D breast cancer cells; assay: Cell based assay #2: ERE-luciferase reporter, E2-induced ERα activation by Ubc9 C93S; settings: Ubc9 C93S (SUMO-independent), E2 1 μM
Description: T47D cells (5×10^5) were plated in 6-well plates for 24 hours. The cells were washed twice in PBS followed by the addition of phenol red free DMEM containing 5% charcoal-stripped FBS for 48 hrs before transfection. The cells were transfected with 1 μg of each of the indicated plasmids (with a total of 2.5 μg DNA) using lipofectamine 2000 (Life Technology, USA). The cells were induced with 1 μM of E2 4 hours after transfections, harvested after an additional 40 hrs and assayed for luciferase activity following the manufacturer's instructions. Each set of experiments was performed in triplicate and repeated a least three times.

Ubc9 = molecular target: T1, Ubc9 (Homo sapiens, UniProt P63279); assay: GST capture (pull-down) assay of binding to Ubc9; settings: in vitro translated full length protein
T1 construct: made in house; host or cells: E. coli
Excerpt: GST-Ubc9 and GST-ERα (337-379) were expressed and purified from E. coli as described previously (Wang H, Shao N, Ding O M, Cui J, Reddy E S P, Rao V N: BRCA1 proteins are transported to the nucleus in the absence of serum and splice variants BRCA1a, BRCA1b are tyrosine phosphoprotein that associate with E2F, cyclins and cyclin dependent kinases. Oncogene 15, 143-157: 1997.). For in vitro protein binding assay 35 S-Methionine-labeled in vitro translated full length BRCA1, BRCA1a (Chai Y L, Cui J, Chipitsyna G, Liao B, Lui S, Aysola K et al.: C-Fos oncogene regulator Elk-1 interacts with BRCA1 splice variants BRCA 1a/1b and enhances BRCA1a/1b mediated growth suppression in breast cancer cells. Oncogene 20: 1357-1367, 2001.), BRCA1b, BRCA1 Mut#1, BRCA1 Mut#4, BRCA1 1-182, BRCA1 1-182 Mut#1 and BRCA1 1-182 Mut 4 proteins were diluted in binding buffer (20 mM Tris-HCl (pH7.5), 150 mM NaCl, 0.1% Tween 20). The proteins were precleared with GSH beads for 30 min and then incubated with GST or various GST-ER (337-379) proteins beads for 2 hours at 4° C. The beads were then washed three times with binding buffer followed by elution of the bound proteins with SDS sample buffer and loaded on a 15% SDS-PAGE. The gels were fixed, treated with enhance, dried and exposed 9 to X-ray films) and scanned using a Fuji BioImaging analyzer. […]

T1 sequence (P63279 whole entry, species assumed): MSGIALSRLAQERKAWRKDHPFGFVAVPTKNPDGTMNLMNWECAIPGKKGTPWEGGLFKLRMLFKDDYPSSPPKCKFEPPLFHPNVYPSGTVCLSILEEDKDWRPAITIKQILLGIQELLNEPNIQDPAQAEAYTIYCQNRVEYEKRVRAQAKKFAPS

Row | Substance | inhibition of E2-mediated ERα transcription activation by Ubc9/C93S [1] | binding to Ubc9 (Ubc9)
1 | BRCA1 Mutant #1: BRCA1 point mutant 1; apparently SUMO acceptor site mutation lysine (K) 109 to arginine (R) | unlike their respective Mut #1 and Mut#4, inhibit | 
2 | BRCA1 Mutant #4: full length BRCA1 with RING domain cancer-predisposing mutation C61G | unlike their respective Mut #1 and Mut#4, inhibit | did not observe any significant binding
3 | BRCA1: full-length product of the BRCA1 (breast cancer 1) tumor suppressor gene | inhibit E2-mediated ERα transcription activation by Ubc9/C93S | 
